Measured values published in ChEMBL document CHEMBL4043166, “Triazole tethered isatin-coumarin based molecular hybrids as novel antitubulin agents: Design, synthesis, biological investigation and docking studies” (Bioorg Med Chem Lett, 2017).
Active and inactive are the calls of the source. The rule behind the calls is not given here.

How the values were obtained:
[1] = test system: COLO 205; assay: Cytotoxicity against human COLO205 cells assessed as growth inhibition at 50 uM after 48 hrs by SRB assay relative to control; type: functional; details: COLO 205, 48 h, read-out: GI
[2] = test system: PC-3; assay: Cytotoxicity against human PC3 cells assessed as growth inhibition at 50 uM after 48 hrs by SRB assay relative to control; type: functional; details: PC-3, 48 h, read-out: GI
[3] = test system: THP-1; assay: Cytotoxicity against human THP1 cells assessed as growth inhibition at 50 uM after 48 hrs by SRB assay relative to control; type: functional; details: THP-1, 48 h, read-out: GI
[4] = test system: HCT-116; assay: Cytotoxicity against human HCT116 cells assessed as growth inhibition at 50 uM after 48 hrs by SRB assay relative to control; type: functional; details: HCT-116, 48 h, read-out: GI
[5] = test system: COLO 205; assay: Cytotoxicity against human COLO205 cells assessed as cell growth inhibition after 48 hrs by SRB assay; type: functional, cell-based; details: COLO 205, 48 h
[6] = test system: THP-1; assay: Cytotoxicity against human THP1 cells assessed as cell growth inhibition after 48 hrs by SRB assay; type: functional, cell-based; details: THP-1, 48 h
[7] = test system: HCT-116; assay: Cytotoxicity against human HCT116 cells assessed as cell growth inhibition after 48 hrs by SRB assay; type: functional, cell-based; details: HCT-116, 48 h
[8] = species on record: Homo sapiens; assay: Inhibition of tubulin polymerization in human THP1 cells assessed as disrupted microtubule formation at 1 uM after 48 hrs by confocal microscopic analysis; type: cell-based
[9] = Inhibition of tubulin (unknown origin) polymerization; design: species or system Homo sapiens

Compound `O=C1C(=O)N(CCCCn2cc(COc3cc(=O)oc4ccccc34)nn2)c2ccc(Br)cc21` has an inhibition of growth at 50 µM [1] of 56%, an inhibition of growth at 50 µM [2] of 13% and an inhibition of growth at 50 µM [3] of 63%. For the same compound, the inhibition of growth at 50 µM [4] was 59%.

In the case of `O=C1C(=O)N(CCCn2cc(COc3cc(=O)oc4ccccc34)nn2)c2ccc([N+](=O)[O-])cc21`, the inhibition of growth at 50 µM [1] is reported as 52%, the inhibition of growth at 50 µM [2] is reported as 12% and the inhibition of growth at 50 µM [3] is reported as 60%. The inhibition of growth at 50 µM [4] was 60%.

For `O=C1C(=O)N(CCCCCn2cc(COc3cc(=O)oc4ccccc34)nn2)c2ccc(Br)cc21`, the inhibition of growth at 50 µM [1] was 39%, the inhibition of growth at 50 µM [3] was 52% and the inhibition of growth at 50 µM [4] was 43%.

Compound `O=C1C(=O)N(CCCCn2cc(COc3cc(=O)oc4ccccc34)nn2)c2ccc(I)cc21` has an inhibition of growth at 50 µM [1] of 50%, an inhibition of growth at 50 µM [2] of 10% and an inhibition of growth at 50 µM [3] of 59%. It also gave an inhibition of growth at 50 µM [4] of 57%.

`O=C1C(=O)N(CCn2cc(COc3cc(=O)oc4ccccc34)nn2)c2ccc(Cl)cc21` showed an inhibition of growth at 50 µM [1] of 76%, an IC50 [5] of 8.87 µM and an inhibition of growth at 50 µM [2] of 22%. It also gave an IC50 [6] of 5.47 µM, an inhibition of growth at 50 µM [3] of 87% and an IC50 [7] of 5.77 µM. It also gave an inhibition of growth at 50 µM [4] of 70%.

Compound `O=C1C(=O)N(CCn2cc(COc3cc(=O)oc4ccccc34)nn2)c2ccc([N+](=O)[O-])cc21` has an inhibition of growth at 50 µM [1] of 59%, an IC50 [5] of 13 µM and an inhibition of growth at 50 µM [2] of 15%. The IC50 [6] was 8.57 µM, the inhibition of growth at 50 µM [3] was 71% and the IC50 [7] was 9.54 µM. It also gave an inhibition of growth at 50 µM [4] of 68%.

With `CC(=O)O[C@H]1C(=O)[C@@]2(C)[C@H]([C@H](OC(=O)c3ccccc3)[C@]3(O)C[C@H](OC(=O)[C@H](O)[C@@H](NC(=O)c4ccccc4)c4ccccc4)C(C)=C1C3(C)C)[C@]1(OC(C)=O)CO[C@@H]1C[C@@H]2O` the inhibition [8] was “Active”.

Compound `O=C1C(=O)N(CCCn2cc(COc3cc(=O)oc4ccccc34)nn2)c2ccccc21` has an inhibition of growth at 50 µM [1] of 75%, an IC50 [5] of 5.71 µM and an inhibition of growth at 50 µM [2] of 25%. For the same compound, the IC50 [6] was 5.03 µM, the inhibition of growth at 50 µM [3] was 93% and the IC50 [7] was 5.18 µM. It also gave an IC50 [9] of 6.32 µM and an inhibition of growth at 50 µM [4] of 79%.

`COc1ccc2c(c1)C(=O)C(=O)N2CCCCCn1cc(COc2cc(=O)oc3ccccc23)nn1` showed an inhibition of growth at 50 µM [1] of 19%, an inhibition of growth at 50 µM [3] of 30% and an inhibition of growth at 50 µM [4] of 25%.

`O=C1C(=O)N(CCCn2cc(COc3cc(=O)oc4ccccc34)nn2)c2ccc(I)cc21` gave an inhibition of growth at 50 µM [1] of 56%, an inhibition of growth at 50 µM [2] of 14% and an inhibition of growth at 50 µM [3] of 67%. For the same compound, the inhibition of growth at 50 µM [4] was 65%.

Compound `O=C1C(=O)N(CCn2cc(COc3cc(=O)oc4ccccc34)nn2)c2ccc(Br)cc21` has an inhibition of growth at 50 µM [1] of 65%, an IC50 [5] of 10.5 µM and an inhibition of growth at 50 µM [2] of 21%. For the same compound, the IC50 [6] was 6.43 µM, the inhibition of growth at 50 µM [3] was 80% and the IC50 [7] was 8.09 µM. It also gave an inhibition of growth at 50 µM [4] of 72%.

Compound `COc1ccc2c(c1)C(=O)C(=O)N2CCCn1cc(COc2cc(=O)oc3ccccc23)nn1` has an inhibition of growth at 50 µM [1] of 48%, an inhibition of growth at 50 µM [2] of 9% and an inhibition of growth at 50 µM [3] of 56%. For the same compound, the inhibition of growth at 50 µM [4] was 52%.

`O=C1C(=O)N(CCCCCn2cc(COc3cc(=O)oc4ccccc34)nn2)c2ccc([N+](=O)[O-])cc21` showed an inhibition of growth at 50 µM [1] of 23%, an inhibition of growth at 50 µM [3] of 37% and an inhibition of growth at 50 µM [4] of 29%.

Compound `O=C1C(=O)N(CCCCCn2cc(COc3cc(=O)oc4ccccc34)nn2)c2ccc(I)cc21` has an inhibition of growth at 50 µM [1] of 30%, an inhibition of growth at 50 µM [3] of 45% and an inhibition of growth at 50 µM [4] of 36%.

`O=C1C(=O)N(CCCCn2cc(COc3cc(=O)oc4ccccc34)nn2)c2ccccc21` gave an inhibition of growth at 50 µM [1] of 68%, an IC50 [5] of 7.67 µM and an inhibition of growth at 50 µM [2] of 19%. It also gave an IC50 [6] of 5.12 µM, an inhibition of growth at 50 µM [3] of 85% and an IC50 [7] of 8.05 µM. The inhibition of growth at 50 µM [4] was 72%.
